The record followed here is US20240197700A1, “Methods and Compositions for Treating Lysosomal Storage Disorders” (Sanford Health, priority 2021, published 2024).

For one test, the system named is TFEB. As to the kind of experiment: TFEB nuclear translocation time course in transfected N2A cells. Format: cell-based, mouse. The note with it: for TFEB nuclear translocation: N2A cells; for TFEB nuclear translocation (i.e., activation): overall statement, GFP-TFEB transfected N2A cells, acute treatment. As to the method: FIG. 15(A-B). Treatment with LM11A-31 stimulates TFEB nuclear translocation as monitored via time course study. For (A), wild type neuro 2A […] neuroblastoma (N2A) cells were plated and transfected with a pEGFP-N1-TFEB plasmid for a 24-hour incubation. Cells were dyed and imaged on the CellInsight™ CX7 High-Content Screening Platform (CX7) then treated with media containing vehicle or LM11A-31 (100 nM, 1 μM). Cells were imaged every 30 minutes for three hours on the CX7 with incubation between imaging sessions, and results were quantified. The statistics were analyzed using Graphpad Prism™. One-way ANOVA. Mean S.E.M. Dunnett's multiple comparisons test compared to the vehicle treated group. *p<0.05, **p<0.01, ***p<0.001, ****p<0.0001. Quantification of TFEB nuclear translocation after treatment with vehicle or LM11A-31 (100 nM, 1 μM). […] (B) Since LM11A-31 increases the expression of lysosomal genes including the PPT1 and TPP1, and Cathepsin D enzymes, we asked whether LM11A-31 increases the overall activity levels of these enzymes in cellulo. Wild type (WT) and mutant cells were treated with vehicle or LM11A-31 (100 nM). Cells were plated on day 0 and dosed with drug-containing media on DIV3 and DIV5. Cells were lysed, and protein quantification and enzyme activity assay were performed on DIV7. Data was analyzed with GraphPad Prism™. Two-way ANOVA. Mean S.E.M. Tukey's multiple comparisons test. *p<0.05, **p<0.01, ***p<0.001. ****p<0.0001.
(§1) Treatment with AF38469 stimulates TFEB nuclear translocation as monitored via time course study. For (A) and (B), wild type neuro 2A rat neuroblastoma (N2A) cells were plated and transfected with a pEGFP-N1-TFEB plasmid for a 24-hour incubation. Cells were treated with vehicle or AF38469 (40 nM, 400 nM) for three hours then immunocytochemistry was performed with anti-GFP (Abcam, ab13970) and 4′, -diamidino-2-phenylindole-dihydrochloride (DAPI). Cells were imaged on the Nikon AIR confocal microscope. For (C), wild type N2A cells were plated and transfected with a pEGFP-N1-TFEB plasmid for a 24-hour incubation. Cells were dyed and imaged on the CellInsight™ CX7 High-Content Screening Platform (CX7) then treated with media containing vehicle or AF38469 (40 nM, 400 nM). Cells were imaged every 30 minutes for three hours on the CX7 with incubation between imaging sessions, and results were quantified. The statistics were analyzed using Graphpad Prism™. One-way ANOVA. Mean±S.E.M. Dunnett's multiple comparisons test compared to the vehicle treated group. *p<0.05,**p<0.01, ***p<0.001, ****p<0.0001. […] TFEB is a transcription factor that stimulates transcription of genes that are necessary for lysosomal biogenesis and function. Thus, increased TFEB nuclear translocation is expected to stimulate lysosomal biogenesis and function.

A further test has as its system TFE3. The test can be described thus: TFE3 nuclear translocation time course in transfected N2A cells. Format: cell-based, mouse. As to conditions: for TFE3 nuclear translocation (i.e., activation): overall statement, GFP-TFE3 transfected N2A cells, acute treatment. As to the method: as §1, with “stimulates TFE3” for “stimulates TFEB”, “type N2A” for “type neuro 2A rat neuroblastoma (N2A)”, “a pEGFP-N1-TFE3” for “a pEGFP-N1-TFEB”, “group. *p<0.05, **p<0.01,” for “group. *p<0.05,**p<0.01,”, “increased TFE3” for “increased TFEB”
Since LM11A-31 improves lysosomal health and function across diverse cell models of lysosomal storage disorders, we asked whether the drug could be activating transcriptional networks that regulate lysosomal function. The transcription factors TFEB and TFE3 are master regulators of lysosomal biogenesis and function. We hypothesized that LM11A-31 could exert benefits by modulating the nuclear translocation of TFEB and/or TFE3. We tested this in an in vitro system in which GFP fusions of TFEB or TFE3 are expressed and monitored with live imaging (FIG. 15A).

With `Cc1cccc(NC(=O)c2ccc(C(F)(F)F)cc2C(=O)O)n1` [AF38469, 2-((6-methylpyridin-2-yl)carbamoyl)-5-(trifluoromethyl)benzoic acid], the TFEB nuclear translocation entry is on record as “significant increase” in the test on TFEB (40 nM and 400 nM, 180 minutes of incubation, vs vehicle); “significant increase” with TFEB (40 nM, 90 minutes of incubation, vs vehicle). Besides, the “TFEB nuclear translocation (i.e., activation)” value in the test with TFEB is reported as “stimulated”. Also, the TFE3 nuclear translocation entry with TFE3 (40 nM and 400 nM, 90 minutes of incubation, N2A cells, vs vehicle) is reported as “significant increase”; with TFE3 (40 nM, 180 minutes of incubation, N2A cells), “return to baseline”; in the test with TFE3 (400 nM, 180 minutes of incubation, N2A cells) it was “trend towards increased nuclear translocation”. The “TFE3 nuclear translocation (i.e., activation)” value in the test with TFE3 was “stimulates”.

In the case of `CC[C@H](C)[C@H](N)C(=O)NCCN1CCOCC1` [LM11A-31, N-[2-(morpholin-4-yl)ethyl]-L-isoleucinamide], the TFEB nuclear translocation result with TFEB (100 nM and 1 μM, 180 minutes of incubation) is “increasing trend continued”; in the test on TFEB (100 nM, 90 minutes of incubation), “significant increase”. For the same compound, in the test on TFEB, the “TFEB nuclear translocation (i.e., activation)” value is “stimulated”. Moreover, the TFE3 nuclear translocation entry with TFE3 (100 nM and 1 μM, 90 minutes of incubation) was “significant increase”. Also, the “TFE3 nuclear translocation (i.e., activation)” value in the test with TFE3 was “stimulated”.
